The subject of the assay is tobacco budworm (Heliothis virescens [Fabricius]). Briefly: surface-treated diet test against the tobacco budworm. It is filed as in vivo. Conditions: tobacco budworm second instar larvae, surface-treated diet, 0.25 millimoles of candidate insecticide on the surface of the diet, five-day exposure; for Percent Mortality: compared to total number of insects infested; for Percent Growth Inhibition: inhibition of insect weight relative to untreated controls. In outline: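 Wheat germ artificial diet surface-treated with 40 µL of 50 mM DMSO stock diluted 1:7 in 1:1 water/acetone (0.25 millimolar on diet), or sub-multiples for rate tests. One second-instar larva per well, 25° C, 60% RH, 5 days; percent weight inhibition vs DMSO controls and percent mortality.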

With `O=C(Nc1cc(F)cc(F)c1)OC(c1ccc(C(F)(F)F)cc1)C1CCN(Cc2ccc(Oc3ccccn3)cc2)CC1` (stereo not drawn) [Compound 240], the “Percent Mortality” value came out at 100% and the “Percent Growth Inhibition” value is on record as 100%.

In the case of `O=C(Nc1c(F)cccc1F)OC(c1ccc(C(F)(F)F)cc1)C1CCN(Cc2ccc(Oc3ccccn3)cc2)CC1` (stereo not drawn) [Compound 241], the “Percent Mortality” value was determined as 100% and the “Percent Growth Inhibition” value was 100%.

As for `O=C(Nc1ccc(F)c(F)c1F)OC(c1ccc(C(F)(F)F)cc1)C1CCN(Cc2ccc(Oc3ccccn3)cc2)CC1` (stereo not drawn) [Compound 242], the “Percent Mortality” value worked out at 100% and the “Percent Growth Inhibition” value turned out to be 100%.

For `O=C(Nc1c(F)c(F)c(F)c(F)c1F)OC(c1ccc(C(F)(F)F)cc1)C1CCN(Cc2ccc(Oc3ccccn3)cc2)CC1` (stereo not drawn) [Compound 243], the “Percent Mortality” value came out at 100% and the “Percent Growth Inhibition” value was 100%.

Take `O=C(Nc1cccc(C(F)(F)F)c1)OC(c1ccc(C(F)(F)F)cc1)C1CCN(Cc2ccc(Oc3ccccn3)cc2)CC1` (stereo not drawn) [Compound 244]: the “Percent Mortality” value stood at 100% and the “Percent Growth Inhibition” value was 100%.

As to `O=C(Nc1ccc(C(F)(F)F)cc1)OC(c1ccc(C(F)(F)F)cc1)C1CCN(Cc2ccc(Oc3ccccn3)cc2)CC1` (stereo not drawn) [Compound 245], the “Percent Mortality” value came to 100% and the “Percent Growth Inhibition” value is recorded as 100%.

Regarding `O=C(Nc1ccc(C(F)(F)F)cc1)OC(c1ccc(OC(F)(F)F)cc1)C1CCN(Cc2ccc(Oc3ccccn3)cc2)CC1` (stereo not drawn) [Compound 246], the “Percent Mortality” value came to 100% and the “Percent Growth Inhibition” value is reported as 100%.

For `O=C(Nc1ccc(Cl)c(C(F)(F)F)c1)OC(c1ccc(C(F)(F)F)cc1)C1CCN(Cc2ccc(Oc3ccccn3)cc2)CC1` (stereo not drawn) [Compound 247], the “Percent Mortality” value was determined as 100% and the “Percent Growth Inhibition” value came out at 100%.

`O=C(Nc1cc(C(F)(F)F)cc(C(F)(F)F)c1)OC(c1ccc(C(F)(F)F)cc1)C1CCN(Cc2ccc(Oc3ccccn3)cc2)CC1` (stereo not drawn) [Compound 248]: the “Percent Mortality” value was determined as 100% and the “Percent Growth Inhibition” value is 100%.

Take `O=C(Nc1ccc(OC(F)(F)F)cc1)OC(c1ccc(C(F)(F)F)cc1)C1CCN(Cc2ccc(Oc3ccccn3)cc2)CC1` (stereo not drawn) [Compound 249]: the “Percent Mortality” value is 100% and the “Percent Growth Inhibition” value amounted to 100%.

Take `O=C(Nc1ccc(-c2ccccc2)cc1)OC(c1ccc(C(F)(F)F)cc1)C1CCN(Cc2ccc(Oc3ccccn3)cc2)CC1` (stereo not drawn) [Compound 250]: the “Percent Mortality” value is 100% and the “Percent Growth Inhibition” value is on record as 100%.

In the case of `CCn1nnc(-c2ccc(CN3CCC(C(OC(=O)Nc4ccccc4)c4ccc(OC(F)(F)F)cc4)CC3)cc2)n1` (stereo not drawn) [Compound 261], the “Percent Mortality” value is on record as 100% and the “Percent Growth Inhibition” value is 100%.

With `Cn1nnc(-c2ccc(CN3CCC(C(OC(=O)Nc4ccccc4Cl)c4ccc(OC(F)(F)F)cc4)CC3)cc2)n1` (stereo not drawn) [Compound 262], the “Percent Mortality” value is reported as 100% and the “Percent Growth Inhibition” value came out at 100%.

On to `Cn1nnc(-c2ccc(CN3CCC(C(OC(=O)Nc4cccc(Cl)c4)c4ccc(OC(F)(F)F)cc4)CC3)cc2)n1` (stereo not drawn) [Compound 263], for which the “Percent Mortality” value was 100% and the “Percent Growth Inhibition” value turned out to be 100%.

As for `Cn1nnc(-c2ccc(CN3CCC(C(OC(=O)Nc4ccc(Cl)cc4)c4ccc(Cl)cc4)CC3)cc2)n1` (stereo not drawn) [Compound 264], the “Percent Mortality” value is reported as 100% and the “Percent Growth Inhibition” value turned out to be 100%.

`CCn1nnc(-c2ccc(CN3CCC(C(OC(=O)Nc4ccc(Cl)cc4)c4ccc(C(F)(F)F)cc4)CC3)cc2)n1` (stereo not drawn) [Compound 265]: the “Percent Mortality” value is recorded as 100% and the “Percent Growth Inhibition” value worked out at 100%.

Regarding `Cn1nnc(-c2ccc(CN3CCC(C(OC(=O)Nc4ccc(Cl)cc4)c4ccc(OC(F)(F)F)cc4)CC3)cc2)n1` (stereo not drawn) [Compound 266], the “Percent Mortality” value amounted to 100% and the “Percent Growth Inhibition” value amounted to 100%.

As for `CCn1nnc(-c2ccc(CN3CCC(C(OC(=O)Nc4ccc(Cl)cc4)c4ccc(OC(F)(F)F)cc4)CC3)cc2)n1` (stereo not drawn) [Compound 267], the “Percent Mortality” value is 100% and the “Percent Growth Inhibition” value worked out at 100%.

In the case of `CCn1nnc(-c2ccc(CN3CCC(C(OC(=O)Nc4cccc(Br)c4)c4ccc(C(F)(F)F)cc4)CC3)cc2)n1` (stereo not drawn) [Compound 268], the “Percent Mortality” value was determined as 100% and the “Percent Growth Inhibition” value came to 100%.

Take `CCn1nnc(-c2ccc(CN3CCC(C(OC(=O)Nc4ccc(Br)cc4)c4ccc(C(F)(F)F)cc4)CC3)cc2)n1` (stereo not drawn) [Compound 269]: the “Percent Mortality” value came to 100% and the “Percent Growth Inhibition” value came to 100%.

Turning to `CCn1nnc(-c2ccc(CN3CCC(C(OC(=O)Nc4ccc(Br)cc4)c4ccc(OC(F)(F)F)cc4)CC3)cc2)n1` (stereo not drawn) [Compound 270], the “Percent Mortality” value is recorded as 100% and the “Percent Growth Inhibition” value was 100%.

On to `CCn1nnc(-c2ccc(CN3CCC(C(OC(=O)Nc4ccc(I)cc4)c4ccc(OC(F)(F)F)cc4)CC3)cc2)n1` (stereo not drawn) [Compound 271], for which the “Percent Mortality” value worked out at 100% and the “Percent Growth Inhibition” value is 100%.

With `Cn1nnc(-c2ccc(CN3CCC(C(OC(=O)Nc4ccccc4F)c4ccc(OC(F)(F)F)cc4)CC3)cc2)n1` (stereo not drawn) [Compound 272], the “Percent Mortality” value came out at 99% and the “Percent Growth Inhibition” value is 100%.

With `Cn1nnc(-c2ccc(CN3CCC(C(OC(=O)Nc4cccc(F)c4)c4ccc(OC(F)(F)F)cc4)CC3)cc2)n1` (stereo not drawn) [Compound 273], the “Percent Mortality” value worked out at 100% and the “Percent Growth Inhibition” value was determined as 100%.

With `Cn1nnc(-c2ccc(CN3CCC(C(OC(=O)Nc4ccc(F)cc4)c4ccc(Cl)cc4)CC3)cc2)n1` (stereo not drawn) [Compound 274], the “Percent Mortality” value turned out to be 100% and the “Percent Growth Inhibition” value came to 100%.

`Cn1nnc(-c2ccc(CN3CCC(C(OC(=O)Nc4ccc(F)cc4)c4ccc(OC(F)(F)F)cc4)CC3)cc2)n1` (stereo not drawn) [Compound 275]: the “Percent Mortality” value turned out to be 100% and the “Percent Growth Inhibition” value came out at 100%.

Regarding `CCn1nnc(-c2ccc(CN3CCC(C(OC(=O)Nc4ccc(F)cc4)c4ccc(OC(F)(F)F)cc4)CC3)cc2)n1` (stereo not drawn) [Compound 277], the “Percent Mortality” value came out at 100% and the “Percent Growth Inhibition” value is listed as 100%.

Consider `CCn1nnc(-c2ccc(CN3CCC(C(OC(=O)Nc4ccc(Cl)cc4Cl)c4ccc(C(F)(F)F)cc4)CC3)cc2)n1` (stereo not drawn) [Compound 280], for which the “Percent Mortality” value was 100% and the “Percent Growth Inhibition” value turned out to be 100%.

In the case of `CCn1nnc(-c2ccc(CN3CCC(C(OC(=O)Nc4cc(Cl)ccc4Cl)c4ccc(C(F)(F)F)cc4)CC3)cc2)n1` (stereo not drawn) [Compound 281], the “Percent Mortality” value came out at 100% and the “Percent Growth Inhibition” value was 100%.

For `CCn1nnc(-c2ccc(CN3CCC(C(OC(=O)Nc4c(Cl)cccc4Cl)c4ccc(C(F)(F)F)cc4)CC3)cc2)n1` (stereo not drawn) [Compound 282], the “Percent Mortality” value was determined as 0% and the “Percent Growth Inhibition” value stood at 95%.

On to `CCn1nnc(-c2ccc(CN3CCC(C(OC(=O)Nc4ccc(Cl)c(Cl)c4)c4ccc(C(F)(F)F)cc4)CC3)cc2)n1` (stereo not drawn) [Compound 283], for which the “Percent Mortality” value amounted to 100% and the “Percent Growth Inhibition” value turned out to be 100%.

With `CCn1nnc(-c2ccc(CN3CCC(C(OC(=O)Nc4cc(Cl)cc(Cl)c4)c4ccc(C(F)(F)F)cc4)CC3)cc2)n1` (stereo not drawn) [Compound 284], the “Percent Mortality” value turned out to be 100% and the “Percent Growth Inhibition” value was determined as 100%.

Regarding `CCn1nnc(-c2ccc(CN3CCC(C(OC(=O)Nc4ccc(C)cc4)c4ccc(OC(F)(F)F)cc4)CC3)cc2)n1` (stereo not drawn) [Compound 285], the “Percent Mortality” value was 100% and the “Percent Growth Inhibition” value came out at 100%.

Regarding `CCn1nnc(-c2ccc(CN3CCC(C(OC(=O)Nc4ccc(C(C)C)cc4)c4ccc(OC(F)(F)F)cc4)CC3)cc2)n1` (stereo not drawn) [Compound 286], the “Percent Mortality” value worked out at 50% and the “Percent Growth Inhibition” value is given as 94%.

As to `CCn1nnc(-c2ccc(CN3CCC(C(OC(=O)Nc4cccc(C(F)(F)F)c4)c4ccc(C(F)(F)F)cc4)CC3)cc2)n1` (stereo not drawn) [Compound 288], the “Percent Mortality” value came to 100% and the “Percent Growth Inhibition” value is recorded as 100%.

For the compound `CCn1nnc(-c2ccc(CN3CCC(C(OC(=O)Nc4ccc(C(F)(F)F)cc4)c4ccc(C(F)(F)F)cc4)CC3)cc2)n1` (stereo not drawn) [Compound 289], the “Percent Mortality” value amounted to 100% and the “Percent Growth Inhibition” value is listed as 100%.

With `Cn1nnc(-c2ccc(CN3CCC(C(OC(=O)Nc4ccc(C(F)(F)F)cc4)c4ccc(OC(F)(F)F)cc4)CC3)cc2)n1` (stereo not drawn) [Compound 290], the “Percent Mortality” value is recorded as 100% and the “Percent Growth Inhibition” value came out at 100%.

Consider `CCn1nnc(-c2ccc(CN3CCC(C(OC(=O)Nc4ccc(C(F)(F)F)cc4)c4ccc(OC(F)(F)F)cc4)CC3)cc2)n1` (stereo not drawn) [Compound 291], for which the “Percent Mortality” value is recorded as 100% and the “Percent Growth Inhibition” value is reported as 95%.

For the compound `CCn1nnc(-c2ccc(CN3CCC(C(OC(=O)Nc4ccc(Cl)c(C(F)(F)F)c4)c4ccc(C(F)(F)F)cc4)CC3)cc2)n1` (stereo not drawn) [Compound 292], the “Percent Mortality” value was 100% and the “Percent Growth Inhibition” value is recorded as 100%.

As for `CCn1nnc(-c2ccc(CN3CCC(C(OC(=O)Nc4cc(C(F)(F)F)cc(C(F)(F)F)c4)c4ccc(C(F)(F)F)cc4)CC3)cc2)n1` (stereo not drawn) [Compound 293], the “Percent Mortality” value turned out to be 17% and the “Percent Growth Inhibition” value turned out to be 93%.

`Cn1nnc(-c2ccc(CN3CCC(C(OC(=O)Nc4ccc(OC(F)(F)F)cc4)c4ccc(OC(F)(F)F)cc4)CC3)cc2)n1` (stereo not drawn) [Compound 294]: the “Percent Mortality” value is 100% and the “Percent Growth Inhibition” value was 100%.

Take `CCn1nnc(-c2ccc(CN3CCC(C(OC(=O)Nc4ccc(OC(F)(F)F)cc4)c4ccc(OC(F)(F)F)cc4)CC3)cc2)n1` (stereo not drawn) [Compound 295]: the “Percent Mortality” value was 100% and the “Percent Growth Inhibition” value was 92%.

Source of the values: patent publication US7300946B2, “N-(substituted arylmethyl)-4-(disubstituted methyl) piperidines and pyridines” (Bayer CropScience AG, priority 2002, dated 2007).
